{"source": "patent US10548905B2", "about": "“Amorphous onapristone compositions and methods of making the same” (CONTEXT BIOPHARMA INC., priority 2015, dated 2020)", "key": {"[1]": {"test": "Physical stability of amorphous form on storage under ambient conditions, followed by XRPD", "type": "physicochemical", "from_the_text": "(§1) The physical form of onapristone, either as the bulk drug substance or in its compositions, was established using X-ray powder diffraction (XRPD). XRPD patterns were obtained using a Rigaku MiniFlex powder diffraction system, equipped with a horizontal goniometer operating in the θ/2θ mode. The X-ray source was nickel-filtered Kα emission of copper (1.54184 Å). Samples were packed into the sample holder using a back-fill procedure, and were scanned over the range of 3.5 to 40 degrees 2θ at a scan rate of 0.5 degrees 2θ/min. Using a data acquisition rate of 1 point per second, these scanning parameters equate to a step size of 0.0084 degrees 2θ. Calibration of the diffractometer system was effected using purified talc as a reference material. The intensity scale for all diffraction patterns was normalized so that the relative intensity of the most intense peak in the pattern equaled 100%.\nAfter the initial characterization, the substance was placed in a glass vial, and stored under ambient conditions (temperature of 22-24° C.). The product was subsequently obtained after storage under ambient conditions for 25 weeks, 43 weeks, and 16.5 months.\nXRPD patterns of these samples were obtained when initially received and after 12 weeks, 20 weeks, 36 weeks, and 15 months had elapsed. The XRPD patterns obtained for sample SSF-PDS-027-001A are collected in FIG. 2, while the XRPD patterns obtained for sample SSF-PDS-027-001B are collected in FIG. 3."}, "[2]": {"test": "Physical form by X-ray powder diffraction (XRPD)", "type": "physicochemical", "conditions": "no sharp scattering peaks attributable to crystalline onapristone", "from_the_text": "In one aspect, amorphous onapristone is formed by adding onapristone to water, dissolving the onapristone in the water by adding one equivalent of an acid solution, and subsequently increasing the pH of the solution by the addition of one equivalent of base. At the end of this process, an amorphous precipitate is formed which may be isolated and characterized. […] The presence of a crystalline substance is indicated by the presence of sharp peaks (i.e., those whose width at half-height is in the range of 0.3 to 0.5 degrees 2θ) in an XRPD pattern, while the XRPD pattern of an amorphous substance is characterized by the presence of broad scattering peaks (i.e., those whose width at half-height is in the range of at least 8 to 12 degrees 2θ).\nas §1, with “Calibration of the diffractometer system was effected using purified talc as a reference material. The intensity scale for all diffraction patterns was normalized so that the relative intensity of the most intense peak in the pattern equaled 100%.” left out"}}}
{"smiles": "CN(C)c1ccc([C@H]2C[C@]3(C)[C@@H](CC[C@]3(O)CCCO)[C@@H]3CCC4=CC(=O)CCC4=C32)cc1", "note": "[pH-cycled onapristone]", "values": [{"measurement": "storage period over which the drug substance remained amorphous", "setting": "[1]; stored under ambient conditions (22-24° C.)", "value": "≥ 16.5", "unit": "months"}, {"measurement": "storage period over which the drug substance remained amorphous", "setting": "[1]; stored under ambient conditions (22-24° C.), listed as pH-cycled product", "value": "at least 16.5 months"}, {"measurement": "physical form of onapristone by XRPD as initially prepared", "setting": "[2]", "value": "amorphous"}]}
{"smiles": "CN(C)c1ccc([C@H]2C[C@]3(C)[C@@H](CC[C@]3(O)CCCO)[C@@H]3CCC4=CC(=O)CCC4=C32)cc1", "note": "[solvation-desolvation product]", "values": [{"measurement": "storage period over which the drug substance remained amorphous", "setting": "[1]; stored under ambient conditions", "value": "at least 29 weeks"}]}
